{
  "source": "patent US20230043204A1",
  "about": "“DIHYDROERGOTAMINE MESYLATE FORMULATIONS AND PRE-FILLED INJECTORS FOR THERAPEUTIC DELIVERY OF THE SAME” (Scienture, Inc., priority 2019, published 2023)",
  "type_in_all_cases": "physicochemical",
  "key": {"[1]": {"test": "HPLC DHE and specific impurity analysis of formulations O and P on storage", "details": "0 Time", "experimental": "(§1) The examples herein describe analysis of formulations comprising DHE, and analysis of impurity content. Unless specifically indicated otherwise, analysis was carried out by HPLC according to the parameters in Tables 2-4.\n(§2) Mobile Phase A in Tables 3 and 4 contains 2.75 g of sodium 1-heptane sulfonate in 1000 mL Purified Water, pH adjusted to 2.0 with o-phosphoric acid. Mobile Phase B in Tables 3 and 4 contains 200 mL of Mobile Phase A mixed with 800 mL of acetonitrile.\nThe formulation of Table 11 (“P”) was prepared for use in canine studies. An additional formulation was prepared (“O”), replacing DMSO of formula P with an equal amount of propylene glycol."}, "[2]": {"test": "5 mg/mL DHE mesylate stability in solvents suitable for parenteral injection (HPLC)", "set-up": "Total Impurities Initial: unit not given here", "details": "for DHE (mg/mL) After 1 Week / Total Impurities After 1 Week: 1 week 40° C. sealed vial", "experimental": "as §1, §2\nSolvents that are suitable for parenteral injections were selected, and solutions of 5 mg/mL DHE mesylate in each (Table 5) were stored at 40° C. in sealed vials. Following 1 week of storage, the remaining amount of DHE was determined by HPLC, indicating solvents compatible with stable DHE storage."}, "[3]": {"test": "Stability of formulations L, M, N at accelerated conditions (40° C., sealed vials; HPLC)", "details": "Initial", "experimental": "as §1, §2\nAdditional formulations “L”, “M”, and “N” were prepared according to Table 9 and analyzed for the concentration of DHE and impurities following one day in sealed vials at 40° C. Specific impurities were analyzed after storage in sealed vials after one and two weeks at 40° C. (Table 10)."}, "[4]": {"test": "HPLC analysis of formulation J after one day of storage at room temperature", "details": "API sample as comparison", "experimental": "as §1, §2\nAfter one day of storage at room temperature, formulation J was analyzed for DHE and impurities, as shown in the last two rows of Table 8. Testing for specific impurities relative to a sample of API (DHE mesylate) yielded the results of Table 9."}, "[5]": {"test": "Solubility of DHE in solvents (observation)", "details": "in DMSO, benzyl alcohol, ethanol, propylene glycol, and captisol", "description": "Based on this discovery and the solubility and stability data generated above for various solvents, preservatives, and antioxidants, additional stable formulations are included as non-limiting examples in Table 15. Prophetic formulations are included as non-limiting examples in Tables 16 and 17."}},
  "note": "Structures can show the parent of a compound that is named as a salt.",
  "data": [
    {"smiles": "CN1C[C@H](C(=O)N[C@]2(C)O[C@@]3(O)[C@@H]4CCCN4C(=O)[C@H](Cc4ccccc4)N3C2=O)C[C@@H]2c3cccc4[nH]cc(c34)C[C@H]21", "note": "[DHE Mesylate, ergotaman-3′,6′,19-trione, 9,10-dihydro-12′-hydroxy-2′-methyl-5′-(phenylmethyl)-, (5′α)-, monomethane-sulfonate]", "values": [
      {"measurement": "% Total Impurities", "setting": "[1]", "value": 0.2, "unit": "%"},
      {"measurement": "impurity peak, RRT 0.87", "setting": "[1]", "value": 0},
      {"measurement": "impurity peak, RRT 0.92", "setting": "[1]", "value": 0.1},
      {"measurement": "impurity peak, RRT 1.21 (Imp-B)", "setting": "[1]", "value": 0.1},
      {"measurement": "DHE (mg/mL) Initial", "setting": "[2]; 5 mg/mL solution in 15% solution of Kollidon 30", "value": 1.7, "unit": "mg/mL"},
      {"measurement": "DHE (mg/mL) Initial", "setting": "[2]; 5 mg/mL solution in Alcohol, USP", "value": 5, "unit": "mg/mL"},
      {"measurement": "DHE (mg/mL) Initial", "setting": "[2]; 5 mg/mL solution in Benzyl Alcohol", "value": 4.9, "unit": "mg/mL"},
      {"measurement": "DHE (mg/mL) Initial", "setting": "[2]; 5 mg/mL solution in DMSO", "value": 5.1, "unit": "mg/mL"},
      {"measurement": "DHE (mg/mL) Initial", "setting": "[2]; 5 mg/mL solution in Glycerin, USP", "value": 1.3, "unit": "mg/mL"},
      {"measurement": "DHE (mg/mL) Initial", "setting": "[2]; 5 mg/mL solution in Glycerin:Ethanol (1:1)", "value": 5.1, "unit": "mg/mL"},
      {"measurement": "DHE (mg/mL) Initial", "setting": "[2]; 5 mg/mL solution in N,N Dimethyl Acetamide", "value": 5.1, "unit": "mg/mL"},
      {"measurement": "DHE (mg/mL) Initial", "setting": "[2]; 5 mg/mL solution in N-methyl pyrrolidone", "value": 5.1, "unit": "mg/mL"},
      {"measurement": "DHE (mg/mL) Initial", "setting": "[2]; 5 mg/mL solution in PEG 200", "value": 4.3, "unit": "mg/mL"},
      {"measurement": "DHE (mg/mL) Initial", "setting": "[2]; 5 mg/mL solution in Propylene Glycol", "value": 4.8, "unit": "mg/mL"},
      {"measurement": "DHE (mg/mL) Initial", "setting": "[2]; 5 mg/mL solution in Purified water", "value": 4.1, "unit": "mg/mL"},
      {"measurement": "DHE (mg/mL) After 1 Week", "setting": "[2]; 15% solution of Kollidon 30", "value": 3.7, "unit": "mg/mL"},
      {"measurement": "Total Impurities After 1 Week", "setting": "[2]; 15% solution of Kollidon 30", "value": 9.95},
      {"measurement": "Total Impurities Initial", "setting": "[2]; 15% solution of Kollidon 30", "value": 0.24},
      {"measurement": "DHE (mg/mL) After 1 Week", "setting": "[2]; Alcohol, USP", "value": 5, "unit": "mg/mL"},
      {"measurement": "Total Impurities After 1 Week", "setting": "[2]; Alcohol, USP", "value": 0.38},
      {"measurement": "Total Impurities Initial", "setting": "[2]; Alcohol, USP", "value": 0.24},
      {"measurement": "DHE (mg/mL) After 1 Week", "setting": "[2]; Benzyl Alcohol", "value": 4.2, "unit": "mg/mL"},
      {"measurement": "Total Impurities After 1 Week", "setting": "[2]; Benzyl Alcohol", "value": 2.51},
      {"measurement": "Total Impurities Initial", "setting": "[2]; Benzyl Alcohol", "value": 9.58},
      {"measurement": "DHE (mg/mL) After 1 Week", "setting": "[2]; DMSO", "value": 5, "unit": "mg/mL"},
      {"measurement": "Total Impurities After 1 Week", "setting": "[2]; DMSO", "value": 0.47},
      {"measurement": "Total Impurities Initial", "setting": "[2]; DMSO", "value": 0.26},
      {"measurement": "DHE (mg/mL) After 1 Week", "setting": "[2]; Glycerin, USP", "value": 6, "unit": "mg/mL"},
      {"measurement": "Total Impurities After 1 Week", "setting": "[2]; Glycerin, USP", "value": 0.33},
      {"measurement": "Total Impurities Initial", "setting": "[2]; Glycerin, USP", "value": 0.21},
      {"measurement": "DHE (mg/mL) After 1 Week", "setting": "[2]; Glycerin:Ethanol (1:1)", "value": 5.1, "unit": "mg/mL"},
      {"measurement": "Total Impurities After 1 Week", "setting": "[2]; Glycerin:Ethanol (1:1)", "value": 0.4},
      {"measurement": "Total Impurities Initial", "setting": "[2]; Glycerin:Ethanol (1:1)", "value": 0.28},
      {"measurement": "DHE (mg/mL) After 1 Week", "setting": "[2]; N,N Dimethyl Acetamide", "value": 5.4, "unit": "mg/mL"},
      {"measurement": "Total Impurities After 1 Week", "setting": "[2]; N,N Dimethyl Acetamide", "value": 0.8},
      {"measurement": "Total Impurities Initial", "setting": "[2]; N,N Dimethyl Acetamide", "value": 0.13},
      {"measurement": "DHE (mg/mL) After 1 Week", "setting": "[2]; N-methyl pyrrolidone", "value": 4.8, "unit": "mg/mL"},
      {"measurement": "Total Impurities After 1 Week", "setting": "[2]; N-methyl pyrrolidone", "value": 1.14},
      {"measurement": "Total Impurities Initial", "setting": "[2]; N-methyl pyrrolidone", "value": 0.33},
      {"measurement": "DHE (mg/mL) After 1 Week", "setting": "[2]; PEG 200", "value": 4.9, "unit": "mg/mL"},
      {"measurement": "Total Impurities After 1 Week", "setting": "[2]; PEG 200", "value": 1.36},
      {"measurement": "Total Impurities Initial", "setting": "[2]; PEG 200", "value": 0.25},
      {"measurement": "DHE (mg/mL) After 1 Week", "setting": "[2]; Propylene Glycol", "value": 5.1, "unit": "mg/mL"},
      {"measurement": "Total Impurities After 1 Week", "setting": "[2]; Propylene Glycol", "value": 0.42},
      {"measurement": "Total Impurities Initial", "setting": "[2]; Propylene Glycol", "value": 0.26},
      {"measurement": "DHE (mg/mL) After 1 Week", "setting": "[2]; Purified water", "value": 4.4, "unit": "mg/mL"},
      {"measurement": "Total Impurities After 1 Week", "setting": "[2]; Purified water", "value": 3.5},
      {"measurement": "Total Impurities Initial", "setting": "[2]; Purified water", "value": 0.24},
      {"measurement": "% Total Impurities", "setting": "[3]", "value": 0.2, "unit": "%"},
      {"measurement": "impurity peak, RRT 0.87", "setting": "[3]", "value": 0},
      {"measurement": "impurity peak, RRT 0.92", "setting": "[3]", "value": 0.1},
      {"measurement": "impurity peak, RRT 1.22 (Impurity B)", "setting": "[3]", "value": 0.1},
      {"measurement": "Total Impurities following 1 day of storage", "setting": "[4]", "value": 0.19},
      {"measurement": "impurity peak, RRT 0.75", "setting": "[4]", "value": 0.03},
      {"measurement": "impurity peak, RRT 0.84 (Imp-C)", "setting": "[4]", "value": 0.02},
      {"measurement": "impurity peak, RRT 0.9", "setting": "[4]", "value": 0.03},
      {"measurement": "impurity peak, RRT 1.24", "setting": "[4]", "value": 0.11}
    ]},
    {"smiles": "CN1C[C@H](C(=O)N[C@]2(C)O[C@@]3(O)[C@@H]4CCCN4C(=O)[C@H](Cc4ccccc4)N3C2=O)C[C@@H]2c3cccc4[nH]cc(c34)C[C@H]21", "note": "[DHE, (5′α)-9,10-dihydro-12′-hydroxy-2′-methyl-5′-(phenylmethyl)-ergotaman-3′,6′,18-trione]", "values": [
      {"measurement": "solubility (observation in words)", "setting": "[5]", "value": "highly soluble"}
    ]}
  ]
}
